How the values were obtained:
Type in all cases: physicochemical
[1] = Behaviour under long-term, accelerated and harsh storage conditions (moisture absorption, stability of form)
[2] = Dynamic vapor sorption (DVS) hygroscopicity
Protocol: Dynamic Vapor Sorption (DVS) analysis was conducted on the DVS advantage (Surface measurement system, United Kingdom) analyzer at 25° C. and relative humidity of 0-90%.
10 mg of sample was placed in the wire mesh steam sorption balance pan and attached to the DVS-advantage dynamic vapor adsorption balance by the Surface Measurement Systems. […] After the completion of the sorption cycle, the sample was dried using the same procedure, during which the relative humidity was returned to a relative humidity […] all the time. The change in weight during the sorption/desorption cycle (repetition of 3 times) was recorded to determine the hygroscopicity of the sample.

[3] = Test Example 2: comparative storage stability of hydrochloride salt forms, purity by HPLC
Protocol: High performance liquid chromatography (HPLC) was conducted on the Agilent 1100/1200 series HPLC Systems (Agilent, USA) analyzer for the purpose of purity and content analysis including stability test and the like. The analysis conditions of the HPLC are as follows.
To compare the stability of amorphous hydrochloride salt form and crystalline hydrochloride salt polymorphs, each of samples of the polymorphs and amorphous form of the hydrochloride salt of the compound of chemical formula (1) prepared in Examples 4 to 6 was left for 4 weeks under long term conditions (e.g., temperature of 25±2° C. and relative humidity of 60±5%) and accelerated conditions (e.g., temperature of 40° C. and relative humidity of 75%). Each sample was analyzed by high performance liquid chromatography (HPLC) according to the purity measurement conditions of the compound of chemical formula (1).

[4] = Test Example 1: comparative solubility of amorphous and crystalline hydrochloride salt forms (HPLC); conditions: 25° C., loading of 1.0 mg/mL; for Solubility, Water: LOD 0.1 μg/mL
Protocol: To compare the solubility of amorphous hydrochloride salt form and crystalline hydrochloride salt polymorphs, each of the polymorphs and amorphous form of the hydrochloride salt of the compound of chemical formula (1) prepared in Examples 4 to 6 was used to prepare samples under the following conditions according to non-ionized water and acidity (pH). Thereafter, each solution was analyzed by high performance liquid chromatography (HPLC) according to the measurement conditions of the content of the compound of chemical formula (1) to measure the dissolved amount (LOD: 0.1 μg/mL) based on the compound of chemical formula (1).
Specifically, 5 mg of each polymorph was added to 5 ml of water and mixed using a Voltamixer at 20-25° C. Thereafter, the filtrate obtained by filtrating using GH Polypro membrane Acrodisc, PALL (pore size 0.2 μm) was diluted with a dilution solvent for high performance liquid chromatography (HPLC) at a ratio of 1/100, to obtain the samples.

[5] = Solubility in water of the compound of chemical formula (1); conditions: amorphous free base
[6] = relative humidity range of 10-90%, 25° C.
[7] = 25 ± 2° C., 60 ± 5% RH, listed as HCl cryst. hydrate
[8] = 40 ± 2° C., 75 ± 5% RH, listed as HCl cryst. hydrate
[9] = 25 ± 2° C., 60 ± 5% RH, listed as HCl cryst. anhydrate
[10] = 40 ± 2° C., 75 ± 5% RH, listed as HCl cryst. anhydrate

Structure (SMILES): C=CC(=O)N1CCC(Oc2cc3c(Nc4ccc(Cl)c(Cl)c4F)ncnc3cc2OC)CC1 [Example 3, 1-(4-(4-(3,4-dichloro-2-fluorophenylamino)-7-methoxyquinazolin-6-yloxy)piperidin-1-yl)prop-2-en-1-one]
- stability of the crystalline form on storage ([1]; long-term (25° C., 60% RH), accelerated (40° C., 75% RH) and harsh (60° C.) conditions): sufficiently stable
- hygroscopic degree (DVS) ([2]; relative humidity range of 0-90%, listed as crystalline anhydrous Form II): very low
- hygroscopic degree (DVS) [2, 6]: about 0.7%

Structure (SMILES): C=CC(=O)N1CCC(Oc2cc3c(Nc4ccc(Cl)c(Cl)c4F)ncnc3cc2OC)CC1 [Example 4, 1-(4-(4-(3,4-dichloro-2-fluorophenylamino)-7-methoxyquinazolin-6-yloxy)piperidin-1-yl)prop-2-en-1-one]
- hygroscopic degree (DVS) [2, 6]: about 0.4%
- hygroscopic degree (DVS) ([2]; relative humidity range of 10-90%, 25° C., listed as crystalline monohydrochloride monohydrate (1HCl.1H2O) form): very low
- Purity (HPLC, %) 3 days [3, 7]: 99.2%
- Purity (HPLC, %) Start [3, 7]: 99.2%
- Purity (HPLC, %) Week 1 [3, 7]: 99.2%
- Purity (HPLC, %) Week 2 [3, 7]: 99.1%
- Purity (HPLC, %) Week 4 [3, 7]: 99.2%
- Purity (HPLC, %) 3 days [3, 8]: 99.3%
- Purity (HPLC, %) Start [3, 8]: 99.2%
- Purity (HPLC, %) Week 1 [3, 8]: 99.2%
- Purity (HPLC, %) Week 2 [3, 8]: 99.1%
- Purity (HPLC, %) Week 4 [3, 8]: 99.2%
- Solubility, pH 1.2 ([4]; listed as HCl cryst. hydrate): 5 μg/mL
- Solubility, pH 2.0 ([4]; listed as HCl cryst. hydrate): 7 μg/mL
- Solubility, pH 4.0 ([4]; listed as HCl cryst. hydrate): 48 μg/mL
- Solubility, Water ([4]; listed as HCl cryst. hydrate): <LOD

Structure (SMILES): C=CC(=O)N1CCC(Oc2cc3c(Nc4ccc(Cl)c(Cl)c4F)ncnc3cc2OC)CC1 [Example 5, 1-(4-(4-(3,4-dichloro-2-fluorophenylamino)-7-methoxyquinazolin-6-yloxy)piperidin-1-yl)prop-2-en-1-one]
- moisture absorption on storage ([1]; 25° C., 60% relative humidity and 40° C., 75% relative humidity): did not absorb moisture
- hygroscopic degree (DVS) [2, 6]: about 0.35%
- hygroscopic degree (DVS) ([2]; relative humidity range of 10-90%, 25° C., listed as crystalline anhydrous monohydrochloride (1HCl) form): very low
- Purity (HPLC, %) 3 days [3, 9]: 99.4%
- Purity (HPLC, %) Start [3, 9]: 99.4%
- Purity (HPLC, %) Week 1 [3, 9]: 99.4%
- Purity (HPLC, %) Week 2 [3, 9]: 99.5%
- Purity (HPLC, %) Week 4 [3, 9]: 99.5%
- Purity (HPLC, %) 3 days [3, 10]: 99.4%
- Purity (HPLC, %) Start [3, 10]: 99.4%
- Purity (HPLC, %) Week 1 [3, 10]: 99.4%
- Purity (HPLC, %) Week 2 [3, 10]: 99.5%
- Purity (HPLC, %) Week 4 [3, 10]: 99.5%
- Solubility, pH 1.2 ([4]; listed as HCl cryst. anhydrate): 92 μg/mL
- Solubility, pH 2.0 ([4]; listed as HCl cryst. anhydrate): 140 μg/mL
- Solubility, pH 4.0 ([4]; listed as HCl cryst. anhydrate): 74 μg/mL
- Solubility, Water ([4]; listed as HCl cryst. anhydrate): 20 µg/mL

Structure (SMILES): C=CC(=O)N1CCC(Oc2cc3c(Nc4ccc(Cl)c(Cl)c4F)ncnc3cc2OC)CC1 [Example 6, 1-(4-(4-(3,4-dichloro-2-fluorophenylamino)-7-methoxyquinazolin-6-yloxy)piperidin-1-yl)prop-2-en-1-one]
- Solubility, pH 1.2 ([4]; listed as HCl amorphous): 274 μg/mL
- Solubility, pH 2.0 ([4]; listed as HCl amorphous): 213 μg/mL
- Solubility, pH 4.0 ([4]; listed as HCl amorphous): 34 μg/mL
- Solubility, Water ([4]; listed as HCl amorphous): 53 µg/mL

Structure (SMILES): C=CC(=O)N1CCC(Oc2cc3c(Nc4ccc(Cl)c(Cl)c4F)ncnc3cc2OC)CC1 [Reference Example, 1-(4-(4-(3,4-dichloro-2-fluorophenylamino)-7-methoxyquinazolin-6-yloxy)piperidin-1-yl)prop-2-en-1-one]
- hygroscopic degree (DVS) [2, 6]: 1-3%
- solubility [5]: < 1 µg/mL

Reference: patent US20220040180A1, “KITS AND METHODS FOR TREATING CANCERS” (Spectrum Pharmaceuticals, Inc., priority 2018, published 2022)
